Measured values taken from patent publication US5674490A, “Antibiotic GE1655 complex and its factors A, B, and C” (Gruppa Lepetit S.p.A., priority 1995, dated 1997).

System: Candida albicans L145
Experiment: Candida vaginitis in ovariectomized rats
Assay type: in vivo, ovariectomized female CD rats
Conditions: for Mean log10 cfu ± SD/sample: i.va. twice daily, after 3 days of treatment, GE1655 complex 10, miconazole 4 mg/rat per treat.
Procedure: The in vivo protective activity of the antibiotic GE1655 complex against Candida albicans in ovariectomized female CD rats (weighing 150-170 g, obtained from Charles River 7 days after surgery) was determined. Candida albicans L145 was grown overnight in Sabouraud dextrose broth (Difco) at 30° C. The culture was centrifuged at 6000 r.p.m. for 20 min at 4° C., the yeast was resuspended in nutrient broth N.2 (Oxoid) containing 15% (v/v) glycerol and stored at -80° C. After 7 days of acclimatization in a temperature and humidity controlled room, the animals received 4 mg of estradiol benzoate (Sigma) subcutaneously. Four days later they were infected by intravaginal (i.va.) instillation with 0.025 ml of thawed Candida albicans suspension (about 5×10^6 cfu/rat).
GE1655 complex and miconazole (Sigma) were dissolved in dimethylsulfoxide (DMSO) and then diluted 1:10 with PEG 400; this risulted in homogeneous suspensions. Animals received 0.1 ml of one of these suspensions i.va. twice daily for three days starting 24 h after the infection. Control animals were treated with the vehicle (10% DMSO in PEG 400).
The presence of Candida was determined by inserting a disposable 0.01 ml calibrated loop into the vagina. The sample was resuspended in 0.2 ml of sterile peptonized saline and cultivated on Sabouraud dextrose agar containing 100 mg/l of rifampicin to inhibit growth of bacterial contaminants.

SMILES: Clc1ccc(COC(Cn2ccnc2)c2ccc(Cl)cc2Cl)c(Cl)c1 (stereo not drawn) [Miconazole, miconazole]
- vaginal load compared with the control group (2 experiments, 10 mg of GE1655 complex or 4 mg of miconazole): significantly lower (p<0.01)
- Mean log10 cfu ± SD/sample (exp. 1): 1.20 ± 1.01 log10 cfu/sample
- Mean log10 cfu ± SD/sample (exp. 2): 1.24 ± 0.86 log10 cfu/sample
